Molecular target: T1, T. gondii CDPK1 (tgCDPK1) (Toxoplasma gondii, UniProt Q9BJF5)
T1 sequence (Q9BJF5 1-507): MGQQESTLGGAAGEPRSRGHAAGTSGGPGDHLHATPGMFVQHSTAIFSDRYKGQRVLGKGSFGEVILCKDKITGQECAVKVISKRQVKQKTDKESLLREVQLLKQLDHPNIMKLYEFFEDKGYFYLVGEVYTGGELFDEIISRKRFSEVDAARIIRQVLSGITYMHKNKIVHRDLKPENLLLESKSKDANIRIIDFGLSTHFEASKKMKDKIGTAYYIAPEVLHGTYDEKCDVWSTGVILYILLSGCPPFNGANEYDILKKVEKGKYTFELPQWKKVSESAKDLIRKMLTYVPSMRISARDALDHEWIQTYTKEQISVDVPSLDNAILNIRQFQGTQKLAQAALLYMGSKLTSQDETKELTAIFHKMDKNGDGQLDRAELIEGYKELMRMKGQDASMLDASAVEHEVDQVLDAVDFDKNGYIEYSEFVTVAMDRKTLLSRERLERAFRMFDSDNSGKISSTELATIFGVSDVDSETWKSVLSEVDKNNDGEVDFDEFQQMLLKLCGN
Assay: biochemical
Settings: inhibition of T. gondii CDPK1; at least three independent replicates; read-out: tgCDPK1 IC50
Experimental: Certain of the compounds prepared as described above were assayed to determine their IC50 for inhibition of T. gondii CDPK1 (tgCDPK1). At least three independent replicates of the assay were conducted for each compound tested.

Compound	IC50 [nM]
CC(C)(C)OC(=O)N1CCC(Cn2nc(Oc3cc(Cl)ccn3)c3c(N)ncnc32)C(F)(F)C1 (stereo not drawn) [Compound 212]	31.2
Nc1ncnc2c1c(Oc1cc(Cl)ccn1)nn2CC1CCNCC1(F)F (stereo not drawn) [Compound 213]	9.7
Nc1ncnc2c1c(Oc1cc(Cl)ccn1)nn2C1CCCCC1 [Compound 214]	4.6
N#Cc1ccnc(Oc2nn(C3CCCCC3)c3ncnc(N)c23)c1 [Compound 215]	12.3
Nc1ncnc2c1c(Oc1cc(Cl)ccn1)nn2C1CCCOC1 (stereo not drawn) [Compound 216]	15.8
COc1ccnc(Oc2nn(C3CCOC3)c3ncnc(N)c23)c1 (stereo not drawn) [Compound 219]	77.4
COc1ccnc(Oc2nn(C3CCOCC3)c3ncnc(N)c23)c1 [Compound 220]	54.4
N#Cc1ccnc(Oc2nn(CC3CC3)c3ncnc(N)c23)c1 [Compound 221]	24.1
Nc1ncnc2c1c(Oc1cc(Cl)ccn1)nn2C1CCCNC1 (stereo not drawn) [Compound 222]	24.6
COc1ccnc(Oc2nn(CC3CC3)c3ncnc(N)c23)c1 [Compound 223]	25.1
CC(C)(C)OC(=O)N1CCCC(n2nc(Oc3cc(Cl)ccn3)c3c(N)ncnc32)C1 (stereo not drawn) [Compound 224]	43.7
Nc1ncnc2c1c(Oc1cc(Cl)ccn1)nn2CC1CC1 [Compound 225]	9
CN(C)C1CCC(n2nc(Oc3cc(C(F)(F)F)ccn3)c3c(N)ncnc32)CC1 (stereo not drawn) [Compound 227]	28.5
COC(=O)C1CCC(n2nc(Oc3cc(C(F)(F)F)ccn3)c3c(N)ncnc32)CC1 (stereo not drawn) [Compound 228]	25.4
Nc1ncnc2c1c(Oc1cc(C(F)(F)F)ccn1)nn2C1CCC(O)C1 (stereo not drawn) [Compound 230]	24.2
Nc1ncnc2c1c(Oc1cc(C(F)(F)F)ccn1)nn2[C@H]1CC[C@@H](O)CC1 [Compound 231]	18.6
Nc1ncnc2c1c(Oc1cc(C(F)(F)F)ccn1)nn2C1CCC(N)CC1 (stereo not drawn) [Compound 232]	24.3
Nc1ncnc2c1c(Oc1cc(C(F)(F)F)ccn1)nn2[C@H]1CCCC[C@H]1F [Compound 233]	34.4
Nc1ncnc2c1c(Oc1cc(C(F)(F)F)ccn1)nn2C1CC2CNC1C2 (stereo not drawn) [Compound 234]	76.7
Nc1ncnc2c1c(Oc1cc(C(F)(F)F)ccn1)nn2[C@H]1CC[C@H](O)CC1 [Compound 235]	15.9
COC1CCCCC1n1nc(Oc2cc(C(F)(F)F)ccn2)c2c(N)ncnc21 (stereo not drawn) [Compound 236]	85.6

Compound	IC50 [nM]
CO[C@H]1CC[C@H](n2nc(Oc3cc(C(F)(F)F)ccn3)c3c(N)ncnc32)CC1 [Compound 237]	38.1
CO[C@H]1CC[C@@H](n2nc(Oc3cc(C(F)(F)F)ccn3)c3c(N)ncnc32)CC1 [Compound 238]	44.7
Nc1ncnc2c1c(Oc1cc(C(F)(F)F)ccn1)nn2[C@H]1CC[C@@H](N)CC1 [Compound 239]	23.1
CC(C)(C)OC(=O)N[C@H]1CC[C@@H](n2nc(Oc3cc(C(F)(F)F)ccn3)c3c(N)ncnc32)C1 [Compound 240]	12.1
Nc1ncnc2c1c(Oc1cc(C(F)(F)F)ccn1)nn2[C@H]1CC[C@@H](CO)CC1 [Compound 242]	15.1
Nc1ncnc2c1c(Oc1cc(C(F)(F)F)ccn1)nn2[C@H]1CC[C@H](CO)CC1 [Compound 243]	10.3
Nc1ncnc2c1c(Oc1cc(C(F)(F)F)ccn1)nn2CC1(C(F)(F)F)CC1 [Compound 244]	31
Nc1ncnc2c1c(Oc1cccc(Cl)c1)nn2Cc1cc[nH]c1 [Compound 247]	19.4
Nc1ncnc2c1c(Oc1cc(C(F)(F)F)ccn1)nn2[C@H]1COC[C@H](N)C1 [Compound 248]	60.7
Nc1ncnc2c1c(Oc1cc(C(F)(F)F)ccn1)nn2[C@H]1COC[C@@H](N)C1 [Compound 249]	55
Nc1ncnc2c1c(Oc1cccc(Cl)c1)nn2CC1(CO)CC1 [Compound 250]	34.9
Nc1ncnc2c1c(Oc1cc(C(F)(F)F)ccn1)nn2[C@@H]1CC[C@H](N)C1 [Compound 251]	42.1
Nc1ncnc2[nH]nc(Oc3cccc(Cl)c3)c12 [Compound 252]	77.3
CC(C)(C)n1nc(Cc2c[nH]c3ccccc23)c2c(N)ncnc21 [Compound 254]	9
CC(C)(C)n1nc(Cc2cccc(C#N)c2)c2c(N)ncnc21 [Compound 255]	13.4
Nc1ncnc2c1c(Oc1cc(C(F)(F)F)ccn1)nn2C1CCCC1 [Compound 257]	23.4
CC(C)(C)n1nc(Oc2cc(C(F)(F)F)ccn2)c2c(N)ncnc21 [Compound 258]	13.9
CC(C)(C)n1nc(Oc2cc(C#N)ccn2)c2c(N)ncnc21 [Compound 259]	18.1
CC(C)(C)n1nc(Oc2cc(C(N)=O)ccn2)c2c(N)ncnc21 [Compound 260]	40.5
Nc1ncnc2c1c(Oc1cc(Cl)ccn1)nn2C1CCC(F)(F)CC1 [Compound 261]	35.3
CC(C)(C)n1nc(Oc2cc(Cl)ccn2)c2c(N)ncnc21 [Compound 262]	12

Compound	IC50 [nM]
N#Cc1ccnc(Oc2nn(CC3CCNCC3(F)F)c3ncnc(N)c23)c1 (stereo not drawn) [Compound 263]	39.2
CC(C)(C)n1nc(Oc2cc(O)ccn2)c2c(N)ncnc21 [Compound 264]	13.9
CC(C)(CO)Cn1nc(Oc2cccc(Cl)c2)c2c(N)ncnc21 [Compound 265]	47.9
C=CC(O)Cn1nc(Oc2cc(C(F)(F)F)ccn2)c2c(N)ncnc21 (stereo not drawn) [Compound 268]	11.7
Nc1ncnc2c1c(Oc1cc(C(F)(F)F)ccn1)nn2CC1CCB(O)O1 (stereo not drawn) [Compound 269]	28.6
Nc1ncnc2c1c(Oc1cc(C(F)(F)F)ccn1)nn2CC1CC(B(O)O)C1 (stereo not drawn) [Compound 270]	28.7
Nc1ncnc2c1c(Oc1cc(C(F)(F)F)ccn1)nn2C1CCNCC1(F)F (stereo not drawn) [Compound 271]	19.8
Nc1ncnc2c1c(Oc1cc(C(F)(F)F)ccn1)nn2C1(C(F)(F)F)CCC1 [Compound 272]	20.7
Nc1ncnc2c1c(Oc1cc(C(F)(F)F)ccn1)nn2CC1CC(O)C1 (stereo not drawn) [Compound 273]	35.8
Nc1ncnc2c1c(Oc1cc(C(F)(F)F)ccn1)nn2C1CC(F)(F)CCC1O (stereo not drawn) [Compound 274]	35
CC(=O)Oc1ccnc(Oc2nn(C3CCC(F)(F)CC3)c3ncnc(N)c23)c1 [Compound 277]	21.5
Nc1ncnc2c1c(Oc1cc(O)ccn1)nn2[C@H]1CCCC[C@@H]1O [Compound 278]	18.9
Nc1ncnc2c1c(Oc1cc(C(F)(F)F)ccn1)nn2C1CCCCC1(F)F (stereo not drawn) [Compound 279]	35.7
Nc1ncnc2c1c(Oc1cc(C(F)(F)F)ccn1)nn2CC(F)(F)F [Compound 280]	38.6
COc1ccnc(Oc2nn([C@@H]3CCCC[C@H]3O)c3ncnc(N)c23)c1 [Compound 281]	26.2
COc1ccnc(Oc2nn([C@H]3CCCC[C@H]3O)c3ncnc(N)c23)c1 [Compound 282]	41.3
CCOC(=O)C1(n2nc(Oc3cc(C(F)(F)F)ccn3)c3c(N)ncnc32)CCC1 [Compound 287]	728
Nc1ncnc2c1c(Oc1cc(C(F)(F)F)ccn1)nn2C1(C(=O)O)CCC1 [Compound 288]	11900
Nc1ncnc2c1c(Oc1cc(C(F)(F)F)ccn1)nn2C1CCCCC1=O (stereo not drawn) [Compound 289]	98.5
Nc1ncnc2c1c(Oc1cc(O)ccn1)nn2C1CC(F)C1 (stereo not drawn) [Compound 290]	8.7
(trans)-3-(4-amino-3-((5-fluoro-1H-indol-3-yl)methyl)-1H-pyrazolo[3,4-d]pyrimidin-1-yl)cyclobutan-1-ol [Compound 154]	11.8

Reference: US20210347780A1, “CDPK1 INHIBITORS, COMPOSITIONS, AND METHODS RELATED THERETO” (Vyera Pharmaceuticals, LLC, priority 2018, published 2021)
